From patent US7138361B2, “Herbicidal heterocycles” (E. I. du Pont de Nemours and Company, priority 2000, dated 2006)

Key:
Assay in all cases: Test C postemergence
Format in all cases: in vivo
[1] = tested on: Surinam grass (Brachiaria decumbens)
Outline: (§1)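 Plants held in greenhouse for 12–14 days post-application are scored by eye against controls on a 0–100 control scale. Application timing: preemergence on sown seed, or postemergence on 2–18 cm plants.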

[2] = tested on: bermudagrass (Cynodon dactylon)
Outline: as §1

[3] = tested on: chickweed (Stellaria media)
Outline: as §1

[4] = tested on: cocklebur (Xanthium strumarium)
Outline: as §1

[5] = tested on: common ragweed (Ambrosia elatior)
Outline: as §1

corn (Zea mays) = tested on: corn (Zea mays)
Outline: as §1

[6] = tested on: crabgrass (Digitaria sanguinalis)
Outline: as §1

[7] = tested on: giant foxtail (Setaria faberii)
Outline: as §1

[8] = tested on: goosegrass (Eleusine indica)
Outline: as §1

[9] = tested on: johnsongrass (Sorghum halepense)
Outline: as §1

kochia (Kochia scoparia) = tested on: kochia (Kochia scoparia)
Outline: as §1

[10] = tested on: lambsquarters (Chenopodium album)
Outline: as §1

[11] = tested on: pigweed (Amaranthus retroflexus)
Outline: as §1

soybean (Glycine max) = tested on: soybean (Glycine max)
Outline: as §1

[12] = tested on: velvetleaf (Abutilon theophrasti)
Outline: as §1

[13] = tested on: woolly cupgrass (Eriochloa villosa)
Outline: as §1

[14] = tested on: yellow nutsedge (Cyperus esculentus)
Outline: as §1

[15] = Rate 125 g/ha, scale 0 to 100, 0 no effect, 100 complete control
[16] = Rate 250 g/ha, scale 0 to 100 (0 no effect, 100 complete control)
[17] = Rate 500 g/ha, scale 0 to 100 (0 no effect, 100 complete control)

O=C1C(n2ccc(C3CCC3)n2)SCN1c1cccc(OC(F)(F)F)c1 (stereo not shown) [Compound 38]
Plant response rating, Surinam grass ([1]; Rate 62 g/ha, scale 0 to 100): 0 | Plant response rating, Surinam grass [1, 15]: 0 | Plant response rating, Surinam grass [1, 16]: 0 | Plant response rating, Surinam grass [1, 17]: 0 | Plant response rating, Bermudagrass ([2]; Rate 62 g/ha, scale 0 to 100): 0 | Plant response rating, Bermudagrass [2, 15]: 0 | Plant response rating, Bermudagrass [2, 16]: 30 | Plant response rating, Bermudagrass [2, 17]: 70 | Plant response rating, Chickweed ([3]; Rate 62 g/ha, scale 0 to 100): 0 | Plant response rating, Chickweed [3, 15]: 0 | Plant response rating, Chickweed [3, 16]: 0 | Plant response rating, Chickweed [3, 17]: 0 | Plant response rating, Cocklebur ([4]; Rate 62 g/ha, scale 0 to 100): 0 | Plant response rating, Cocklebur [4, 15]: 0 | Plant response rating, Cocklebur [4, 16]: 0 | Plant response rating, Cocklebur [4, 17]: 20 | Plant response rating, Ragweed, Common ([5]; Rate 62 g/ha, scale 0 to 100): 0 | Plant response rating, Ragweed, Common [5, 15]: 0 | Plant response rating, Ragweed, Common [5, 16]: 40 | Plant response rating, Ragweed, Common [5, 17]: 40 | Plant response rating, Corn (corn (Zea mays); Rate 62 g/ha, scale 0 to 100): 0 | Plant response rating, Corn (corn (Zea mays); [15]): 0 | Plant response rating, Corn (corn (Zea mays); [16]): 0 | Plant response rating, Corn (corn (Zea mays); [17]): 0 | Plant response rating, Crabgrass ([6]; Rate 62 g/ha, scale 0 to 100): 0 | Plant response rating, Crabgrass [6, 15]: 0 | Plant response rating, Crabgrass [6, 16]: 0 | Plant response rating, Crabgrass [6, 17]: 30 | Plant response rating, Foxtail, Giant ([7]; Rate 62 g/ha, scale 0 to 100): 0 | Plant response rating, Foxtail, Giant [7, 15]: 0 | Plant response rating, Foxtail, Giant [7, 16]: 0 | Plant response rating, Foxtail, Giant [7, 17]: 0 | Plant response rating, Goosegrass ([8]; Rate 62 g/ha, scale 0 to 100): 0 | Plant response rating, Goosegrass [8, 15]: 0 | Plant response rating, Goosegrass [8, 16]: 0 | Plant response rating, Goosegrass [8, 17]: 0 | Plant response rating, Johnsongrass ([9]; Rate 62 g/ha, scale 0 to 100): 0 | Plant response rating, Johnsongrass [9, 15]: 0 | Plant response rating, Johnsongrass [9, 16]: 0 | Plant response rating, Johnsongrass [9, 17]: 30 | Plant response rating, Kochia (kochia (Kochia scoparia); Rate 62 g/ha, scale 0 to 100): 60 | Plant response rating, Kochia (kochia (Kochia scoparia); [15]): 60 | Plant response rating, Kochia (kochia (Kochia scoparia); [16]): 70 | Plant response rating, Kochia (kochia (Kochia scoparia); [17]): 70 | Plant response rating, Lambsquarters ([10]; Rate 62 g/ha, scale 0 to 100): 30 | Plant response rating, Lambsquarters [10, 15]: 30 | Plant response rating, Lambsquarters [10, 16]: 70 | Plant response rating, Lambsquarters [10, 17]: 70 | Plant response rating, Pigweed ([11]; Rate 62 g/ha, scale 0 to 100): 0 | Plant response rating, Pigweed [11, 15]: 0 | Plant response rating, Pigweed [11, 16]: 0 | Plant response rating, Pigweed [11, 17]: 0 | Plant response rating, Soybean (soybean (Glycine max); Rate 62 g/ha, scale 0 to 100): 0 | Plant response rating, Soybean (soybean (Glycine max); [15]): 0 | Plant response rating, Soybean (soybean (Glycine max); [16]): 0 | Plant response rating, Soybean (soybean (Glycine max); [17]): 0 | Plant response rating, Velvetleaf ([12]; Rate 62 g/ha, scale 0 to 100): 0 | Plant response rating, Velvetleaf [12, 15]: 0 | Plant response rating, Velvetleaf [12, 16]: 0 | Plant response rating, Velvetleaf [12, 17]: 0 | Plant response rating, Cupgrass, Woolly ([13]; Rate 62 g/ha, scale 0 to 100): 0 | Plant response rating, Cupgrass, Woolly [13, 15]: 0 | Plant response rating, Cupgrass, Woolly [13, 16]: 0 | Plant response rating, Cupgrass, Woolly [13, 17]: 0 | Plant response rating, Nutsedge ([14]; Rate 62 g/ha, scale 0 to 100): 0 | Plant response rating, Nutsedge [14, 15]: 0 | Plant response rating, Nutsedge [14, 16]: 0 | Plant response rating, Nutsedge [14, 17]: 0

CCC(C)c1ccn(C2SCN(c3cccc(OC(F)(F)F)c3)C2=O)n1 (stereo not shown) [Compound 40]
Plant response rating, Surinam grass ([1]; Rate 62 g/ha, scale 0 to 100): 0 | Plant response rating, Surinam grass [1, 15]: 0 | Plant response rating, Surinam grass [1, 16]: 0 | Plant response rating, Surinam grass [1, 17]: 0 | Plant response rating, Bermudagrass ([2]; Rate 62 g/ha, scale 0 to 100): 0 | Plant response rating, Bermudagrass [2, 15]: 20 | Plant response rating, Bermudagrass [2, 16]: 60 | Plant response rating, Bermudagrass [2, 17]: 70 | Plant response rating, Chickweed ([3]; Rate 62 g/ha, scale 0 to 100): 0 | Plant response rating, Chickweed [3, 15]: 0 | Plant response rating, Chickweed [3, 16]: 0 | Plant response rating, Chickweed [3, 17]: 0 | Plant response rating, Cocklebur ([4]; Rate 62 g/ha, scale 0 to 100): 0 | Plant response rating, Cocklebur [4, 15]: 0 | Plant response rating, Cocklebur [4, 16]: 0 | Plant response rating, Cocklebur [4, 17]: 0 | Plant response rating, Ragweed, Common ([5]; Rate 62 g/ha, scale 0 to 100): 0 | Plant response rating, Ragweed, Common [5, 15]: 0 | Plant response rating, Ragweed, Common [5, 16]: 30 | Plant response rating, Ragweed, Common [5, 17]: 40 | Plant response rating, Corn (corn (Zea mays); Rate 62 g/ha, scale 0 to 100): 0 | Plant response rating, Corn (corn (Zea mays); [15]): 0 | Plant response rating, Corn (corn (Zea mays); [16]): 20 | Plant response rating, Corn (corn (Zea mays); [17]): 30 | Plant response rating, Crabgrass ([6]; Rate 62 g/ha, scale 0 to 100): 0 | Plant response rating, Crabgrass [6, 15]: 0 | Plant response rating, Crabgrass [6, 16]: 0 | Plant response rating, Crabgrass [6, 17]: 0 | Plant response rating, Foxtail, Giant ([7]; Rate 62 g/ha, scale 0 to 100): 0 | Plant response rating, Foxtail, Giant [7, 15]: 0 | Plant response rating, Foxtail, Giant [7, 16]: 0 | Plant response rating, Foxtail, Giant [7, 17]: 0 | Plant response rating, Goosegrass ([8]; Rate 62 g/ha, scale 0 to 100): 0 | Plant response rating, Goosegrass [8, 15]: 0 | Plant response rating, Goosegrass [8, 16]: 0 | Plant response rating, Goosegrass [8, 17]: 20 | Plant response rating, Johnsongrass ([9]; Rate 62 g/ha, scale 0 to 100): 0 | Plant response rating, Johnsongrass [9, 15]: 0 | Plant response rating, Johnsongrass [9, 16]: 20 | Plant response rating, Johnsongrass [9, 17]: 30 | Plant response rating, Kochia (kochia (Kochia scoparia); Rate 62 g/ha, scale 0 to 100): 20 | Plant response rating, Kochia (kochia (Kochia scoparia); [15]): 50 | Plant response rating, Kochia (kochia (Kochia scoparia); [16]): 60 | Plant response rating, Kochia (kochia (Kochia scoparia); [17]): 70 | Plant response rating, Lambsquarters ([10]; Rate 62 g/ha, scale 0 to 100): 20 | Plant response rating, Lambsquarters [10, 15]: 40 | Plant response rating, Lambsquarters [10, 16]: 50 | Plant response rating, Lambsquarters [10, 17]: 70 | Plant response rating, Pigweed ([11]; Rate 62 g/ha, scale 0 to 100): 0 | Plant response rating, Pigweed [11, 15]: 0 | Plant response rating, Pigweed [11, 16]: 50 | Plant response rating, Pigweed [11, 17]: 50 | Plant response rating, Soybean (soybean (Glycine max); Rate 62 g/ha, scale 0 to 100): 0 | Plant response rating, Soybean (soybean (Glycine max); [15]): 0 | Plant response rating, Soybean (soybean (Glycine max); [16]): 0 | Plant response rating, Soybean (soybean (Glycine max); [17]): 0 | Plant response rating, Velvetleaf ([12]; Rate 62 g/ha, scale 0 to 100): 0 | Plant response rating, Velvetleaf [12, 15]: 0 | Plant response rating, Velvetleaf [12, 16]: 0 | Plant response rating, Velvetleaf [12, 17]: 20 | Plant response rating, Cupgrass, Woolly ([13]; Rate 62 g/ha, scale 0 to 100): 0 | Plant response rating, Cupgrass, Woolly [13, 15]: 0 | Plant response rating, Cupgrass, Woolly [13, 16]: 0 | Plant response rating, Cupgrass, Woolly [13, 17]: 0 | Plant response rating, Nutsedge ([14]; Rate 62 g/ha, scale 0 to 100): 0 | Plant response rating, Nutsedge [14, 15]: 0 | Plant response rating, Nutsedge [14, 16]: 0 | Plant response rating, Nutsedge [14, 17]: 20
